Patent US8569358B2, “Use of silymarin and/or constituents thereof as skin or hair pigmentation promoters” (GreenPharma, priority 2005, dated 2013)
Values joined by “and” are separate entries in the source; they are usually repeats but may differ in a detail not shown here. Equal values may be shown once. Blank lines part the entries; values can stand above or below the compound they belong to.

Key:
[1] = target: T1, receptor MC1-R (melanocortin-1 receptor) (Mus musculus, UniProt Q01727); conditions: of the order of; read-out: Affinity of the ligand for MC1-R; cited from earlier work
T1 sequence (Q01727 whole entry): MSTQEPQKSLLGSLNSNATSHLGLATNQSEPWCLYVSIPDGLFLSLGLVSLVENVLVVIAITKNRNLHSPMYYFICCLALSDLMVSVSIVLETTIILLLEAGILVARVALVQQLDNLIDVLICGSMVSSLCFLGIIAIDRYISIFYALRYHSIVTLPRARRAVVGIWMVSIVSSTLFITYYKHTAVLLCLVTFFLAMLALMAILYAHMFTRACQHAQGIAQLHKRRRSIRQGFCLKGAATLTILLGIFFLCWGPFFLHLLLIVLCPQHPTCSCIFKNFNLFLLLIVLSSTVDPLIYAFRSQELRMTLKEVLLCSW

normal human melanocytes [2] = assay: Melanin synthesis by normal human melanocytes (10-day culture); format: cell-based; conditions: 10 days
Method: The melanogenesis-stimulating effect of silybin was measured on normal human melanocyte cultures.
(§1) For silybin, the following were determined:
(§2) after culturing for 10 days under standard conditions, in 24-well plates, in Promocell medium free of “phorbol myristate acetate” (PMA):
the amount of melanin present in the cultures, by spectrophotometric measurement of the melanin produced, after alkaline extraction, relative to 100% of the control (the control corresponds to the test performed without test compound);

normal human melanocytes [3] = assay: Protein synthesis (3H-leucine incorporation), normal human melanocytes; format: cell-based; conditions: for Protein synthesis (3H-leucine), % of control / Protein synthesis (3H-leucine), cpm: 3 days; for Protein synthesis (3H-leucine), cpm: labelling last 24 hours
Method: (§3) after culturing for 3 days under standard conditions:
the effects on the metabolism of normal human melanocytes by incorporation of tritiated leucine into neosynthesized proteins (labelling for the last 24 hours).

[4] = tested on: normal human hair follicles; assay: Protection against degeneration of cultured human hair follicles; format: cell-based; conditions: precultured 7 days, then treated 7 days
From the text: The aim of this test is to show the effect of the compounds used according to the invention on degeneration of the follicles in in vitro cultures of human hair follicles.
Method: Normal human hair follicles are isolated by microdissection of human scalp (lifting) and cultured as in Example 4. The bulbs are all precultured (“aged”, without treatment) for 7 days (D7), and then left untreated or treated by the invention for a further 7 days (D14). The follicles are photographed and the morphology is analysed.

normal human melanocytes [5] = assay: Cytotoxicity (MTT reduction) and amount of proteins (Bradford), normal human melanocyte cultures; format: cell-based; conditions: for Proteins / MTT: 10 days; for MTT: control = 100
From the text: as §2
the cytotoxicity, by estimating the reduction of “methyl thiazolyl tetrazolium” (MTT), the amount of proteins, by assay according to the Bradford method and observation of the cell lawns, […]

[6] = target: T1, receptor MC1-R (melanocortin-1 receptor); assay: Displacement of [125I]NDP-alpha-MSH from receptor MC1-R; format: binding
Method: The binding of silybin to the receptor MC1-R (melanocortin-1 receptor) was studied.
Silybin was tested in a test of displacement of an extremely powerful MC1-R ligand: displacement of [^125I]NDP-alpha-MSH, (according to Siegrist et al, 1988, J. Recept. Res., 8: 323-343).

[7] = tested on: B16F10-line mouse melanoma cells; assay: Cytotoxicity (MTT) and amount of proteins (Bradford), B16F10 cultures; format: cell-based; conditions: for Proteins / MTT: 7 days; for MTT: control = 100
From the text: (§4) after culturing for 7 days under standard conditions, in 24-well plates, DMEM medium containing 10% calf serum:
the cytotoxicity, by estimating the […] of MTT, the amount of proteins, by assay according to the Bradford method and observation of the cell lawns, […]

normal human melanocytes [8] = assay: Proliferation (3H-thymidine incorporation), normal human melanocytes; format: cell-based; conditions: 3 days; for Proliferation (3H-thymidine), cpm: labelling last 24 hours
Method: as §3
the effects on the proliferation of normal human melanocytes by incorporation of tritiated thymidine into DNA (labelling for the last 24 hours),

keratinocytes = assay: Proliferation/protein synthesis of keratinocytes; format: cell-based
[9] = tested on: normal human keratinocytes; assay: Phagocytosis of fluorescent beads by keratinocytes (flow cytometry); format: cell-based; conditions: for % Positive cells (cells which have phagocytozed more than twice the basal phagocytosis), single replicates / Positive cells, % Control / % Positive cells, Mean: 24 hours; for % Positive cells, Mean: triplicate
Method: The aim of this test is to show the effect of the compounds used according to the invention on modulation of the phagocytosis of particles by the keratinocytes.
Method: Normal human keratinocytes are cultured in KSFM medium and treated for 24 hours with the compounds according to the invention, in the presence of calibrated fluorescent beads (Molecular Probes) of the size of melanosomes. The phagocytosis of the particles is visualized by fluorescence microscopy, and the cells are then harvested after trypsination and analysed by flow cytometry, to determine the number of cells that have phagocytozed a threshold number of particles and the intensity of the phagocytozed overall fluorescence (10 000 cells analysed per condition, in triplicate).

[10] = tested on: B16F10-line mouse melanoma cells; assay: Melanin synthesis by B16F10-line melanocytes (7-day culture); format: cell-based; conditions: 7 days
Method: The melanogenesis-stimulating effect of silybin was measured on B16F10-line mouse melanoma cells.
as §1, §4
the amount of melanin present in the cultures, by spectrophotometric measurement of the melanin produced, after alkaline extraction, relative to 100% of the control (the control corresponds to the test performed without test compound).

Compound: [^125I]NDP-alpha-MSH
Kd [1]: ~0.1 nM

Displacement of [125I]NDP-alpha-MSH ([6]; at 100 μM (0.005%)): 10%
Displacement of [125I]NDP-alpha-MSH ([6]; at 500 μM): 30%
Compound: COc1cc(C2Oc3cc([C@H]4Oc5cc(O)cc(O)c5C(=O)[C@@H]4O)ccc3OC2CO)ccc1O (stereo partly drawn) [Silybin, 2-[(2R,3R)-2,3-dihydro-3-(4-hydroxy-3-methoxyphenyl)-2-(hydroxymethyl)-1,4-benzodioxin-6-yl]-2,3-dihydro-3,5,7-trihydroxy-4H-1-benzopyran-4-one, (2R,3R)-(9CI)]
Melanin (normal human melanocytes [2]; 0.00004% (w/v)): 31.9 µg/mL
Melanin, % relative to 100% of the control (normal human melanocytes [2]; 0.00004% (w/v)): 115%
Melanin (normal human melanocytes [2]; 0.0002% (w/v)): 37.1 µg/mL
Melanin, % relative to 100% of the control (normal human melanocytes [2]; 0.0002% (w/v)): 134%
Melanin (normal human melanocytes [2]; 0.001% (w/v)): 41.5 µg/mL
Melanin, % relative to 100% of the control (normal human melanocytes [2]; 0.001% (w/v)): 150%
Protein synthesis (3H-leucine), % of control (normal human melanocytes [3]; 0.0002%): 120%
Protein synthesis (3H-leucine), cpm (normal human melanocytes [3]; 0.0002%): 11705 cpm
Protein synthesis (3H-leucine), % of control (normal human melanocytes [3]; 0.001%): 124%
Protein synthesis (3H-leucine), cpm (normal human melanocytes [3]; 0.001%): 12099 cpm
Protein synthesis increase (normal human melanocytes [3]; protein neosynthesis over 72 hours): 20%
Pigmentation of the hair root [4]: display pigmentation of all of the hair root
Proteins (normal human melanocytes [5]; 0.00004% (w/v)): 0.765 mg/mL
MTT (normal human melanocytes [5]; 0.00004% (w/v)): 113%
Proteins (normal human melanocytes [5]; 0.0002% (w/v)): 0.792 mg/mL
MTT (normal human melanocytes [5]; 0.0002% (w/v)): 126%
Proteins (normal human melanocytes [5]; 0.001% (w/v)): 0.830 mg/mL
MTT (normal human melanocytes [5]; 0.001% (w/v)): 128%
Cytotoxic activity (in words) (normal human melanocytes [5]; normal human melanocytes): without any cytotoxic activity
Proteins ([7]; 0.00004%): 1.553 mg/mL
MTT ([7]; 0.00004%): 100%
Proteins ([7]; 0.0002%): 1.594 mg/mL
MTT ([7]; 0.0002%): 100%
Proteins ([7]; 0.001%): 1.457 mg/mL
MTT ([7]; 0.001%): 89%
Cell metabolism according to MTT and protein synthesis parameters (in words) ([7]; B16F10): without modification of the cell metabolism
Proliferation (3H-thymidine), % of control (normal human melanocytes [8]; 0.0002%): 83%
Proliferation (3H-thymidine), cpm (normal human melanocytes [8]; 0.0002%): 5638 cpm
Proliferation (3H-thymidine), % of control (normal human melanocytes [8]; 0.001%): 53%
Proliferation (3H-thymidine), cpm (normal human melanocytes [8]; 0.001%): 3622 cpm
Effect on proliferation/protein synthesis of keratinocytes (keratinocytes): did not otherwise show any effect
% Positive cells (cells which have phagocytozed more than twice the basal phagocytosis), single replicates ([9]; 0.0002%): 44.29% and 42.92% and 45.88%
Positive cells, % Control ([9]; 0.0002%): 124%
% Positive cells, Mean ([9]; 0.0002%): 44%
% Positive cells (cells which have phagocytozed more than twice the basal phagocytosis), single replicates ([9]; 0.001%): 52.19% and 50.74% and 49.94%
Positive cells, % Control ([9]; 0.001%): 143%
% Positive cells, Mean ([9]; 0.001%): 51%
Phagocytosis of fluorescent particles (in words) ([9]; flow cytometry and fluorescence microscopy): significant and reproducible stimulation of phagocytosis
Melanin ([10]; 0.00004%): 13.0 µg/mL
Melanin, % relative to 100% of the control ([10]; 0.00004%): 100%
Melanin ([10]; 0.0002%): 15.0 µg/mL
Melanin, % relative to 100% of the control ([10]; 0.0002%): 115%
Melanin ([10]; 0.001%): 33.0 µg/mL
Melanin, % relative to 100% of the control ([10]; 0.001%): 250% and 254%
